For series [1], the system named is carcinomatous pain. As to the kind of experiment: Carcinomatous pain treating tests (clinical examples). The format is in vivo, human. The note with it: one patient. As to the method:
Further, using benzaldehyde and 4,6-O-benzylidene-D-glucose the following carcinomatous pain treating tests were conducted.
After hospitalization, 25 mg benzaldehyde tablets (enteric tablets containing benzaldehyde prepared in the above-described Formulation Example 5) were administered at a dosage of 5 tablets, 4 times a day.
Since variety of chemotherapeutics were not administered because there was a threat of strong side effects, the sole administration of 4,6-O-benzylidene-D-glucose was started in such a way that 1,200 mg of a freeze dried preparation thereof was dissolved in 100 ml of physiological saline and administered i.v. at a rate of once a day (time required being ca. 10 minutes).

Series [2] concerns the target T1, dipeptidylcarboxypeptidase (enkephalinase A) (Macaca fascicularis, UniProt G7NZK8).
T1 construct: releases Tyr-Gly-Gly from [3H]Leu-enkephalin
T1 sequence (G7NZK8 2-750): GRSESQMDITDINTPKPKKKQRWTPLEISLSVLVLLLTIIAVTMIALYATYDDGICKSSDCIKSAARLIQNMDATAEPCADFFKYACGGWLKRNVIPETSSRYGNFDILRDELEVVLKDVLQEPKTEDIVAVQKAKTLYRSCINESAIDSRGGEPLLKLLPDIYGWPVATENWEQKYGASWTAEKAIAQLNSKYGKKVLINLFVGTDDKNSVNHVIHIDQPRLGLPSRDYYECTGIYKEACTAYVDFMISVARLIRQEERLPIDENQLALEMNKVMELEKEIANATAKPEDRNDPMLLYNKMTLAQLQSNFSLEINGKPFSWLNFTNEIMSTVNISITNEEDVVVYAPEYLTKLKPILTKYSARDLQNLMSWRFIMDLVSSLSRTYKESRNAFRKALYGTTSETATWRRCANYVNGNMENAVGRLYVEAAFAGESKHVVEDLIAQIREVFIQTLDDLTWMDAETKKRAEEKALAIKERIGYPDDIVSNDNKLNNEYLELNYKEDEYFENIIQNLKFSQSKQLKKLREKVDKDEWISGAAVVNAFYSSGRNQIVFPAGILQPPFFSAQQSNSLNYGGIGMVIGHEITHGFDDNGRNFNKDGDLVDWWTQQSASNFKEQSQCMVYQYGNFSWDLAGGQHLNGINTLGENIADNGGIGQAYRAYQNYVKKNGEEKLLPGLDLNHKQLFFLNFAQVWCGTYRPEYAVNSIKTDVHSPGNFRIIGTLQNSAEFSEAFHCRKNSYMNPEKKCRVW
As to the kind of experiment: Enkephalinase A inhibiting effect. The format is biochemical. The conditions noted are these: read-out: enzyme inhibiting effect on enkephalinase A. The method, then: (§1) The cerebrum of Macaca Fascicularis was chopped using anatomical scissors, 3 volumes that of 25 mM tris-hydrochloric acid buffer (pH 7.7) was added thereto and the mixture homogenized. It was then ultracentrifuged (50,000×g), the supernatant was removed, and the obtained precipitants were treated and washed twice using the same buffer (these precipitates contained enkephalin decomposing enzymes in a form combined to the cell membrane).
(§2) Thereafter, 25 mM tris-hydrochloric acid buffer (pH 7.7) containing 1% of Triton X-100 was added to the precipitates to extract enkephalinase. […]
(§3) The obtained enkephalin decomposing enzymes were analyzed by acrylamide electrophoresis to find that they were single proteins respectively.
The enzymatic activity of the respective decomposing enzymes obtained above was measured by the qualitative and quantitative analyses of the decomposition products using [^3 H]-enkephalin or enkephalin as a substrate and employing Porapak Q (produced by Water Associates) column method, high-performance liquid chromatography (HPLC), silica gel thin layer autography, etc.
10 μl of 10 μCi [^3 H] […] Tyr-Gly-Gly was determined using a liquid scintillation counter. […]

The nature of series [3]: Acute toxicity by subcutaneous injection in rats. The note with it: rat, in vivo, sc. An excerpt: Since both benzaldehyde and 4,6-O-benzylidene-D-glucose are substantially non-toxic a wide dosage range may be administered depending on the severity of the pain experienced. The acute toxicity of benzaldehyde and 4,6-O-benzylidene-D-glucose are 5 g/kg or higher and 4 g/kg or higher, respectively, when measured by subcutaneous injection in rats according to conventional toxicity procedures.

The target in series [4] is T2, dipeptidylaminopeptidase (enkephalinase B) (Macaca fascicularis, UniProt A0A7N9C8Y6).
T2 construct: releases Tyr-Gly from enkephalin
T2 sequence (A0A7N9C8Y6 1-737): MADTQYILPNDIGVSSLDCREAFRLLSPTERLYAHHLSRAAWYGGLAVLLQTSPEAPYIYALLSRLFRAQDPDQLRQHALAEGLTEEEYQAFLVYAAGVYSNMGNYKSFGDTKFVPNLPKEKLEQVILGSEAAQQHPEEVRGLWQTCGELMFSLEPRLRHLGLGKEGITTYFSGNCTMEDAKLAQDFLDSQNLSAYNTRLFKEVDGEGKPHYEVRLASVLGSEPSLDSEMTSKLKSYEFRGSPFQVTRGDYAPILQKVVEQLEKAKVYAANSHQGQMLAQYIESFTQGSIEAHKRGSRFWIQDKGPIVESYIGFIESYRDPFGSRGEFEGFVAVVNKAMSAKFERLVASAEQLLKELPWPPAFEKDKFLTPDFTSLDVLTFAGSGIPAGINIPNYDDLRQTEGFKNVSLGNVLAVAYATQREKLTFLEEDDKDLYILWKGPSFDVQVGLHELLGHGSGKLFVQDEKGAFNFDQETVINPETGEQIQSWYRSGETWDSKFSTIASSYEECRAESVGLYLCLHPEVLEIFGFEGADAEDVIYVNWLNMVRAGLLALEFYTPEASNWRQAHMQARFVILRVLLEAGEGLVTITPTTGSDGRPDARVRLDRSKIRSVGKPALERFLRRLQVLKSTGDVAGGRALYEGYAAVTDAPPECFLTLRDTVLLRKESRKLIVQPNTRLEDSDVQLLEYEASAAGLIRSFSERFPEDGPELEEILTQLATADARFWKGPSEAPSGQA
As to the kind of experiment: Enkephalinase B inhibiting effect. The format is biochemical. As to the method:
as §1, §2, §3
(§4) The enzymatic activity of the respective decomposing enzymes obtained above was measured by the qualitative and quantitative analyses of the decomposition products using [^3 H]-enkephalin or enkephalin as a substrate and employing Porapak Q (produced by Water Associates) column method, high-performance liquid chromatography (HPLC), silica gel thin layer autography, etc. […]

Series [5] deals with T3, angiotensin converting enzyme (Macaca fascicularis, UniProt A0A2K5VWQ5).
T3 sequence (A0A2K5VWQ5 31-1307): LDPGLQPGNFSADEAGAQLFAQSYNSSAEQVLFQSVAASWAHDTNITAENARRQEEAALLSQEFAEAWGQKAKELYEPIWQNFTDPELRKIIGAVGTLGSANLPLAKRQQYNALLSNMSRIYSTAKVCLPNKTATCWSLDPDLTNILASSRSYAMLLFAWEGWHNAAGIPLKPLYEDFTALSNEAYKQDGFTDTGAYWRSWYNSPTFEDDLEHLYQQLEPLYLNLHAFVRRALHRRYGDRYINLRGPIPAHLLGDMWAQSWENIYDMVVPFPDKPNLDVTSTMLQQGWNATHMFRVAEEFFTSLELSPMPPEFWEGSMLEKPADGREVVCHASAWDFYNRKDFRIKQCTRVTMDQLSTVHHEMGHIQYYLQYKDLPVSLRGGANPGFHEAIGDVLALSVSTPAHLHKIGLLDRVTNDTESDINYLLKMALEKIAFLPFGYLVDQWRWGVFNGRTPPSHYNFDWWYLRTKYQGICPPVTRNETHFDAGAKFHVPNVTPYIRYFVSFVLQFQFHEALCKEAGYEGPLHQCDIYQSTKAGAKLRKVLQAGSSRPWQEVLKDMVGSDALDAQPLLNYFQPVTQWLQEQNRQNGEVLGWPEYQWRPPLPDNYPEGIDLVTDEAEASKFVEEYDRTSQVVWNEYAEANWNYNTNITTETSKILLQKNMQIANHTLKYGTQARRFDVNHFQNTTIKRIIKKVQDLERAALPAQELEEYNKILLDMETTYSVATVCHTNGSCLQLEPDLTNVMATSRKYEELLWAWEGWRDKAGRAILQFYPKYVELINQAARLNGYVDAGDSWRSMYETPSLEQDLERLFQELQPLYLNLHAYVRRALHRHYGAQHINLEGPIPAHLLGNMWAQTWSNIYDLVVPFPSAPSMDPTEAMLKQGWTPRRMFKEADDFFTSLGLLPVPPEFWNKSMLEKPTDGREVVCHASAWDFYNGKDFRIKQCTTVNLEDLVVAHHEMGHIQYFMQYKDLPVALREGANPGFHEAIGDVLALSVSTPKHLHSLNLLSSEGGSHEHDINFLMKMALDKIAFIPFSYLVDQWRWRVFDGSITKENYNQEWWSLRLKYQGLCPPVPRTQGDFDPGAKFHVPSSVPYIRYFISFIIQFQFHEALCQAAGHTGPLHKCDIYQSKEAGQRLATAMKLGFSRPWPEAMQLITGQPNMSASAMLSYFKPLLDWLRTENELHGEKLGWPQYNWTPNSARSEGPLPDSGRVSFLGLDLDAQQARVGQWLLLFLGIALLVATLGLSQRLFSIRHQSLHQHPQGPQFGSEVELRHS
As to the kind of experiment: Angiotensin converting enzyme inhibiting effect. The format is biochemical. The method, then: as §1, §2, §3, §4

For series [6] the following is noted: Japanese Patent Application Laid-Open No. 108027/1977 and No. 70428/1979; cited from earlier work.
Series [7] has as its system aminopeptidase. In words: Aminopeptidase (enkephalin decomposing enzyme) inhibiting effect. The format is biochemical, Macaca Fascicularis. The method, then:
as §1, §2, §3, §4

Here are results for two compounds from patent publication US4613588A, “Benzaldehyde and 4,6-O-benzylidene-D-glucose for alleviating pain” (Kaken Pharmaceutical Co. Ltd., priority 1984, dated 1986).

Like-named read-outs stand apart in the source and are kept apart here. Some results are limits rather than exact numbers.

Regarding `OC1O[C@@H]2COC(c3ccccc3)O[C@H]2[C@H](O)[C@H]1O` (stereo partly drawn) [4,6-O-benzylidene-D-glucose], the pain result in series [1] (gastric cancer metastasis to bone, 1,200 mg i.v. once a day, 17th to 18th day) is given as “the pain almost disappeared”. For the same compound, the “tumor condition by bone scintillation” value in series [1] (gastric cancer metastasis to bone, 1,200 mg i.v. once a day, 26th day, versus before administration) is listed as “the tumor condition was the same”. Moreover, the mobility entry in series [1] (gastric cancer metastasis to bone, 1,200 mg i.v. once a day, from 10th day) is reported as “became able to sit on bed”. The inhibition at 1200 µg/mL in series [2] (1.2 mg/ml) was determined as 81%. Also, the LD50 in series [3] was not below 4000 mg/kg. In series [4] (1.2 mg/ml), the “enzyme inhibiting effect on enkephalinase B” value is on record as “did not exhibit an enzyme inhibiting effect”. Moreover, in series [5] (1.2 mg/ml), the “enzyme inhibiting effect on angiotensin converting enzyme” value is “did not exhibit an enzyme inhibiting effect”. For the same compound, in series [6], the carcinostatic effect result was “known to have carcinostatic effect”. In addition, the “enzyme inhibiting effect on aminopeptidase” value in series [7] (1.2 mg/ml) was “did not exhibit an enzyme inhibiting effect”.

Turning to `O=Cc1ccccc1` [benzaldehyde], the “pain (subjective symptom)” value in series [1] (mandible cancer relapse, 25 mg enteric tablets (Formulation Example 5), 5 tablets 4 times a day, oral, from 5th day) was “the pain was eased”; in series [1] (mandible cancer relapse, 25 mg enteric tablets, 5 tablets 4 times a day, oral, 7th day), “almost no pain”. In addition, the “carcinoma size by X-ray examination” value in series [1] (mandible cancer relapse, 25 mg enteric tablets, 5 tablets 4 times a day, oral) is “did not reduce in size”. For the same compound, the inhibition at 1000 µg/mL in series [2] came to 99%. Also, in series [3] (subcutaneous injection, rats, read-out: acute toxicity), the LD50 is not below 5000 mg/kg. In addition, in series [4] (1 mg/ml), the “enzyme inhibiting effect on enkephalinase B” value is “did not exhibit an enzyme inhibiting effect”. The “enzyme inhibiting effect on angiotensin converting enzyme” value in series [5] (1 mg/ml) was “did not exhibit an enzyme inhibiting effect”. Further, the carcinostatic effect result in series [6] was “known to have carcinostatic effect”. The “enzyme inhibiting effect on aminopeptidase” value in series [7] (1 mg/ml) is “did not exhibit an enzyme inhibiting effect”.
